Measured values: patent US20150044346A1, “USE OF OXAZOLINES AS AROMA/FLAVOUR PRECURSORS” (NESTEC S.A., priority 2012, published 2015)

Key:
[1] = Release of Strecker aldehyde from 3-oxazoline precursor stirred in water at 37° C. (stable isotope dilution, HS-GC-MS / GC-MS); assay type: physicochemical; details: 5 min after addition of water at 37° C.
[2] = Impact of pH value on release of Strecker aldehyde from 3-oxazoline precursor in buffer solution at 37° C.; assay type: physicochemical
Description: (§1) 2-(2-Methylpropyl)-5-methyl-3-oxazoline (dissolved in pentane/diethyl ether; 2 mL) was added to ethanol (0.5 mL). The pentane/diethyl ether was carefully evaporated, and finally made up to 5 mL with ethanol. […] A control experiment was performed with 2-(2-methylpropyl)-5-methyl-3-oxazoline and the respective standard without adding the respective buffer solution. For headspace measurements, the samples were directly subjected to HS-GC-MS. For liquid measurements, the samples were cooled in an ice bath and extracted with diethyl ether (3×15 mL; liquid-liquid extraction). The organic phases were combined, dried over anhydrous sodium sulphate, and the solvent was distilled off (20° C., 500 mbar) to about 4 mL. An aliquot (2 μL) was used for the stable isotope dilution assays ((GC-) GC-MS).
as §1, with “2-Methylphenyl-5-methyl-3-oxazoline” for “2-(2-Methylpropyl)-5-methyl-3-oxazoline”, “2-methylphenyl-5-methyl-3-oxazoline” for “2-(2-methylpropyl)-5-methyl-3-oxazoline”

[3] = Sensory panel, malty aroma of cocoa-malt-based beverage spiked with oxazoline; details: cocoa-malt-based beverage 7.5 g + 10 mg oxazoline
Description: (§2) Cocoa-malt-based beverage (7.5 g) was weighted into a Pyrex bottle. The product was spiked with 2-(2-methylpropyl)-5-methyl-3-oxazoline (10 mg) and the sample was then reconstituted in 100 mL of cold (10° C.) or warm (60° C.) semi-skimmed milk. Samples without addition of oxazoline were prepared analogously and used as references. The impact of the addition of the oxazoline on the intensity of malty aroma (characteristic aroma of 3-methylbutanal) was evaluated by a sensory panel. Comparative profiling procedure was conducted using an 11-point scale ranging from −5 to +5. Assessors were asked to score the sample containing oxazoline against the reference. Reference product containing no added oxazoline was arbitrary positioned on the zero of the scale.

[4] = Sensory panel, malty aroma of coffee mix beverage spiked with oxazoline; details: coffee mix powder 16 g + 10 mg oxazoline, 130 ml hot (80° C.) water; scale −5 to +5, reference at zero
Description: as §2
(§3) Coffee mix powder (16 g) was weighted into a Pyrex bottle. The product was spiked with 2-(2-methylpropyl)-5-methyl-3-oxazoline (10 mg) and the sample was then reconstituted in 130 ml of hot (80° C.) water. Sample without addition of oxazoline was prepared analogously and used as reference. The impact of the addition of the oxazoline on the intensity of malty aroma (characteristic aroma of 3-methylbutanal) was evaluated by a sensory panel as described in example 9. […] To further substantiate the sensory results, the sample was analyzed by SPME-GCxGC-TOFMS.

[5] = SPME-GCxGC-TOFMS of 3-methylbutanal in coffee mix spiked with oxazoline; assay type: physicochemical
Description: as §3
The results (Table 7) indicate that the conversion of oxazoline to Strecker aldehyde is very high and reaches 77% in the analysed coffee mix sample (incubation 60° C./15 min).

[6] = Sensory panel, malty aroma of cereal based pap spiked with oxazoline; details: cereal powder 12.5 g + 10 mg oxazoline, scale −5 to +5
Description: as §2
Cereal powder (12.5 g) was weighted into a plastic dish. The product was spiked with 2-(2-methylpropyl)-5-methyl-3-oxazoline (10 mg) and the sample was then reconstituted in 100 ml of warm (60° C.) water or semi-skimmed milk. Sample without addition of oxazoline was prepared analogously and used as reference. The impact of the addition of the oxazoline on the intensity of malty aroma (characteristic aroma of 3-methylbutanal) was evaluated by a sensory panel as described in example 9.

CC(C)CC1N=CC(C)O1 (stereo not drawn) [2-(2-methylpropyl)-5-methyl-3-oxazoline]
3-methylbutanal released / precursor converted to Strecker aldehyde [1]: about 75%
3-methylbutanal (mol %) generated from precursor ([2]; pH 5, Control without addition of buffer solution): 0.5 mol %
3-methylbutanal (mol %) generated from precursor ([2]; pH 5 buffer, 10 min, 37° C.): 95.1 mol %
3-methylbutanal (mol %) generated from precursor ([2]; pH 5 buffer, 60 min, 37° C.): 98.9 mol %
3-methylbutanal (mol %) generated from precursor ([2]; pH 7, Control without addition of buffer solution): 0.3 mol %
3-methylbutanal (mol %) generated from precursor ([2]; pH 7 buffer, 10 min, 37° C.): 54.8 mol %
3-methylbutanal (mol %) generated from precursor ([2]; pH 7 buffer, 60 min, 37° C.): 97.9 mol %
3-methylbutanal (mol %) generated from precursor ([2]; pH 9, Control without addition of buffer solution): 0.3 mol %
3-methylbutanal (mol %) generated from precursor ([2]; pH 9 buffer, 10 min, 37° C.): 9.0 mol %
3-methylbutanal (mol %) generated from precursor ([2]; pH 9 buffer, 60 min, 37° C.): 35.7 mol %
malty note score against reference ([3]; cold (10° C.) semi-skimmed milk, 11-point scale −5 to +5, reference at zero): 3.6
malty note score against reference ([3]; warm (60° C.) semi-skimmed milk (hot milk), scale −5 to +5, reference at zero): 3.3
malty note score against reference [4]: 3.5
Theoretical release from spike, 3-methylbutanal (ug/vial) [5]: 244 ug/vial
Yield of conversion of oxazoline to Strecker aldehyde ([5]; incubation 60° C./15 min): 77%
3-methylbutanal (ug/vial), sample spiked with oxazoline ([5]; incubation 60° C./15 min, non-spiked reference 28): 215 ug/vial
malty note score against reference ([6]; 100 ml warm (60° C.) semi-skimmed milk): 1.2
malty note score against reference ([6]; 100 ml warm (60° C.) water): 1.7
